This note sets out measurements from PubChem BioAssay AID2060612 (Molecular Pharmacology Branch, DTP, NCI, 2025).

“And” between values parts separate entries of the source, which are not always exact repeats. Equal values may be shown once.

The test relates to 565232-114-T-J1-PDC complex spheroid viability. Kind of test: Anticancer human tumor 565232-114-T-J1-PDC patient-derived bladder carcinoma cell line growth inhibition [CLK]. To be noted: for viability, T/C: stronger effect = lower value. The essentials: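 Patient-derived tumor cells grown as complex spheroids with HUVEC endothelial cells and mesenchymal stem cells, treated with drug combinations. Concentrations descend in half-log steps from near clinical Cmax, or from 10 microM if Cmax unknown.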

[1] abbreviates: curve of first compound, second compound 0.0316 µM.
[2] abbreviates: curve of first compound, second compound 0.1 µM.
[3] abbreviates: curve of first compound, second compound 0.316 µM.
Setting [4] is: curve of first compound, second compound 1 µM.
The mark [5] stands for this setting: curve of first compound, second compound 3.16 µM.
Where [6] appears, read: curve of first compound, second compound 10 µM.
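Further: spheroids exposed to compounds for 7 days before readout.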
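Wherever viability, T/C is given: 100% = DMSO vehicle wells with luminescence normalized to vehicle control.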

As to `NC(=O)C(=Cn1cnc(-c2cc(C(F)(F)F)cc(C(F)(F)F)c2)n1)c1cncnc1` + CNC(=O)c1ccc(Nc2nc(OC3CCCC3)c3c(-c4ccc5nc(C)oc5c4)c[nH]c3n2)c(OC)c1, the IC50 reads like this: under setting [1], 240 nM; under setting [2], below 9.49 nM; under setting [3], below 9.49 nM; under setting [4], below 9.49 nM; under setting [5], below 9.49 nM; under setting [6], below 9.49 nM. The viability, T/C was 105% (second compound 0.0316 µM, first compound 0.00949 µM); 103% (second compound 0.0316 µM, first compound 0.03 µM); 124% (second compound 0.0316 µM, first compound 0.0949 µM); 35.5% (second compound 0.0316 µM, first compound 0.3 µM); 1.65% (second compound 0.0316 µM, first compound 0.949 µM); 0.39% (second compound 0.0316 µM, first compound 3 µM). The viability, T/C by setting is: (second compound 0.1 µM, first compound 0.00949 µM) 44.5%; (second compound 0.1 µM, first compound 0.03 µM) 42.2%; (second compound 0.1 µM, first compound 0.0949 µM) 28.9%; (second compound 0.1 µM, first compound 0.3 µM) 10.7%; (second compound 0.1 µM, first compound 0.949 µM) 1%; (second compound 0.1 µM, first compound 3 µM) 0.65%. Moreover, the viability, T/C runs as follows: (second compound 0.316 µM, first compound 0.00949 µM) 29.7%; (second compound 0.316 µM, first compound 0.03 µM) 29.7%; (second compound 0.316 µM, first compound 0.0949 µM) 27.1%; (second compound 0.316 µM, first compound 0.3 µM) 8.97%; (second compound 0.316 µM, first compound 0.949 µM) 1.36%; (second compound 0.316 µM, first compound 3 µM) 1.61%. The viability, T/C reads like this: (second compound 1 µM, first compound 0.00949 µM) 21.2%; (second compound 1 µM, first compound 0.03 µM) 24%; (second compound 1 µM, first compound 0.0949 µM) 19.4%; (second compound 1 µM, first compound 0.3 µM) 5.67%; (second compound 1 µM, first compound 0.949 µM) 0.48%; (second compound 1 µM, first compound 3 µM) 1.21%. The viability, T/C (second compound 3.16 µM, first compound 0.00949 µM) was 16.4%; the viability, T/C (second compound 3.16 µM, first compound 0.03 µM) was 17.2%; the viability, T/C (second compound 3.16 µM, first compound 0.0949 µM) is 13.8%; the viability, T/C (second compound 3.16 µM, first compound 0.3 µM) is 4.75%; the viability, T/C (second compound 3.16 µM, first compound 0.949 µM) was 1.02%; the viability, T/C (second compound 3.16 µM, first compound 3 µM) is 0.26%. Moreover, the viability, T/C is, setting by setting: (second compound 10 µM, first compound 0.00949 µM) 16.3%; (second compound 10 µM, first compound 0.03 µM) 16.8%; (second compound 10 µM, first compound 0.0949 µM) 11.7%; (second compound 10 µM, first compound 0.3 µM) 4.97%; (second compound 10 µM, first compound 0.949 µM) 0.49%; (second compound 10 µM, first compound 3 µM) 0.34%.
As for `CCN1CCN(Cc2ccc(Nc3ncc(F)c(-c4cc(F)c5nc(C)n(C(C)C)c5c4)n3)nc2)CC1` + CNC(=O)c1ccc(Nc2nc(OC3CCCC3)c3c(-c4ccc5nc(C)oc5c4)c[nH]c3n2)c(OC)c1, the IC50 reads like this: under setting [1], above 1000 nM; under setting [2], above 1000 nM; under setting [3], below 3.16 nM; under setting [4], below 3.16 nM; under setting [5], below 3.16 nM; under setting [6], below 3.16 nM. Moreover, the viability, T/C runs as follows: (second compound 0.0316 µM, first compound 0.00316 µM) 84.4%; (second compound 0.0316 µM, first compound 0.01 µM) 81.1%; (second compound 0.0316 µM, first compound 0.0316 µM) 84.7%; (second compound 0.0316 µM, first compound 0.1 µM) 82.6%; (second compound 0.0316 µM, first compound 0.316 µM) 119%; (second compound 0.0316 µM, first compound 1 µM) 129%. Besides, the viability, T/C (second compound 0.1 µM, first compound 0.00316 µM) is 53.9%; the viability, T/C (second compound 0.1 µM, first compound 0.01 µM) is 56.5%; the viability, T/C (second compound 0.1 µM, first compound 0.0316 µM) was 48.7%; the viability, T/C (second compound 0.1 µM, first compound 0.1 µM) was 64%; the viability, T/C (second compound 0.1 µM, first compound 0.316 µM) was 58.3%; the viability, T/C (second compound 0.1 µM, first compound 1 µM) is 66.7%. In addition, the viability, T/C (second compound 0.316 µM, first compound 0.00316 µM) is 32.8%; the viability, T/C (second compound 0.316 µM, first compound 0.01 µM) was 40.6%; the viability, T/C (second compound 0.316 µM, first compound 0.0316 µM) was 32.6%; the viability, T/C (second compound 0.316 µM, first compound 0.1 µM) was 38.2%; the viability, T/C (second compound 0.316 µM, first compound 0.316 µM) was 42.3%; the viability, T/C (second compound 0.316 µM, first compound 1 µM) is 46.4%. The viability, T/C is 23.9% (second compound 1 µM, first compound 0.00316 µM); 26.5% (second compound 1 µM, first compound 0.01 µM); 24.7% (second compound 1 µM, first compound 0.0316 µM); 34.2% (second compound 1 µM, first compound 0.1 µM); 35.8% (second compound 1 µM, first compound 0.316 µM); 39.2% (second compound 1 µM, first compound 1 µM). In addition, the viability, T/C was 18.1% (second compound 3.16 µM, first compound 0.00316 µM); 19% (second compound 3.16 µM, first compound 0.01 µM); 25% (second compound 3.16 µM, first compound 0.0316 µM); 22.9% (second compound 3.16 µM, first compound 0.1 µM); 27.2% (second compound 3.16 µM, first compound 0.316 µM); 37% (second compound 3.16 µM, first compound 1 µM). Moreover, the viability, T/C is 19.9% (second compound 10 µM, first compound 0.00316 µM); 18.4% (second compound 10 µM, first compound 0.01 µM); 21.7% (second compound 10 µM, first compound 0.0316 µM); 22.5% (second compound 10 µM, first compound 0.1 µM); 31.2% (second compound 10 µM, first compound 0.316 µM); 27.1% (second compound 10 µM, first compound 1 µM).
Regarding `CCN1CCN(Cc2ccc(Nc3ncc(F)c(-c4cc(F)c5nc(C)n(C(C)C)c5c4)n3)nc2)CC1`, the viability, T/C (compound 0.00316 µM) is 90.3% and 109%; the viability, T/C (compound 0.01 µM) was 84.6% and 93.8%; the viability, T/C (compound 0.0316 µM) is 99.3% and 92.6%; the viability, T/C (compound 0.1 µM) was 85.6% and 91.6%; the viability, T/C (compound 0.316 µM) was 103% and 81.7%; the viability, T/C (compound 1 µM) was 120% and 115%. The IC50 (curve of compound) was above 1000 nM.
Turning to `Cn1ncnc1[C@H]1c2n[nH]c(=O)c3cc(F)cc(c23)N[C@@H]1c1ccc(F)cc1`, the viability, T/C by setting is: (compound 0.000316 µM) 93.9% and 110%; (compound 0.001 µM) 72.5% and 92.8%; (compound 0.00316 µM) 77.5% and 109%; (compound 0.01 µM) 109% and 97.4%; (compound 0.0316 µM) 104% and 99.3%; (compound 0.1 µM) 105% and 37%. Besides, the half-maximal inhibitory concentration (IC50) (curve of compound) was > 100 nM and 78.6 nM.
Take `C#Cc1c(F)ccc2cc(O)cc(-c3ncc4c(N5CC6CCC(C5)N6)nc(OCC56CCCN5CC(F)C6)nc4c3F)c12` (configuration not stated): the viability, T/C runs as follows: (compound 0.0316 µM) 106% and 77.8%; (compound 0.1 µM) 92.2% and 83.3%; (compound 0.316 µM) 103% and 102%; (compound 1 µM) 93.2% and 110%; (compound 3.16 µM) 98.7% and 94.8%; (compound 10 µM) 93% and 95.2%. For the same compound, the IC50 (curve of compound) was above 10000 nM.
`CCCS(=O)(=O)Nc1ccc(F)c(C(=O)c2c[nH]c3ncc(-c4ccc(Cl)cc4)cc23)c1F`: the viability, T/C was 81.4% (compound 0.0316 µM); 88.2% (compound 0.1 µM); 101% (compound 0.316 µM); 104% (compound 1 µM); 113% (compound 3.16 µM); 21.5% (compound 10 µM). For the same compound, for the setting “curve of compound”, the IC50 came to 6490 nM.

For orientation: IC50 means the concentration that gives 50% inhibition. The viability, T/C is the ratio of treated to control.
